Test results published in US20260007758A1, “SO[…]-2 RECEPTOR (SST2R) NON-PEPTIDE DRUG CONJUGATES AND USES THEREOF” (Crinetics Pharmaceuticals, Inc., priority 2024, published 2026).

Assays:
Assay type in all cases: cell-based
[1] = target: T1, human somatostatin receptor subtype 2 (Homo sapiens, UniProt P30874); test: Functional assay for SSTR2 agonists (HTRF cAMP); conditions: CHO-K1 cells stably expressing human SST2; NKH477-stimulated cAMP; 20 min at 37 C; read-out: hSST2 cAMP Avg EC50
T1 construct: expressed in transfected cells
From the text: General overview: All five SSTR subtypes are Gi coupled G-protein coupled receptors (GPCRs) that lead to decreases in intracellular cyclic AMP (cAMP) when activated by an agonist. Therefore, measurement of intracellular cAMP levels can be used to assess whether compounds of the invention are agonists of SSTR subtypes (John Kelly, Troy Stevens, W. Joseph Thompson, and Roland Seifert, Current Protocols in Pharmacology. 2005, 2.2.1-2.2). One example of an intracellular cAMP assay is described below.
Four days prior to the assay, 2,000 Chinese hamster ovary cells (CHO-K1, ATCC #CCL-61) stably expressing the human somatostatin receptor subtype 2 are plated in each well of a 96-well tissue culture-treated plate in Ham's F12 growth media (ThermoFisher #10-080-CM) supplemented with 10% donor bovine serum (Gemini Bio-Products #100-506), 100 U/mL penicillin; 100 ug/mL streptomycin, 2 mM L-glutamine (Gemini Bio-Products #400-110) and 0.2 mg/mL hygromycin B (GoldBio #31282-04-9). The cells are cultured at 37° C., 5% CO2 and 95% humidity. cAMP is measured with HTRF dynamic cAMP assay (Cisbio. #62AM5PEJ) per manufacturer's instructions. […] The cells are incubated for 20 minutes at 37° C. (the final concentration of the compounds of the invention are typically 0-10,000 nM). The cells are treated with 50 μL of lysis buffer (HRTF cAMP kit, Cisbio) and incubated at room temperature for 30 minutes with rotary shaking at 600 rpm, and then diluted with 150 μL of stimulation buffer and shaken for an additional five minutes at 300 rpm. The lysate is transferred to 384-well plates and incubated for 1-24 hours at room temperature, and cAMP accumulation is detected by d2-labeled cAMP and Anti-cAMP-Cryptate. The time-resolved fluorescent signal is read using a m1000 Pro (Tecan) or CLARIOStar (BMG Labtech) microplate reader, where the samples are excited with light at 340 nm and emission light is measured at 620 nm and 665 nm. The data is expressed as a calculation of the fluorescence ratio (665 nm/620 nm). The intracellular cAMP concentrations are calculated by regression to a standard curve and are plotted vs, the concentration of the compounds of the invention. The EC50 of the compounds are calculated using standard methods. All data manipulations are in GraphPad Prism v9 (GraphPad, San Diego, CA).

SST2 = target: T2, SST2 (Homo sapiens, UniProt P30874); test: PathHunter CHO-K1 SST2 Internalization Assay; conditions: PathHunter CHO-K1 SST2 cells; 90 min at 37 C; luminescence; read-out: Internalization EC50
T2 construct: host or cells: PathHunter CHO-K1 SST2 cells
Description: NDCs of the present invention were assessed in vitro using the human PathHunter CHO-K1 SST2 β-arrestin2 and PathHunter CHO-K1 SST2 Internalization Assays from DiscoverX. The CHO-K cells were seeded in 20 μLs of cell culture medium in a white-walled 384 well tissue culture-compatible plate at a density of 2500 cells/well. After a 48-hour incubation, cells were treated with 5 μLs of a 1:3 serially diluted SST2 NDC prepared at 5× concentration with a final top compound concentration of 10 uM for 90 min at 37 C and in 5% CO2. 11 dilutions were tested as well as one treatment that was compound free. After incubation, the media containing treatments were discarded and 20 μL of a working solution of Beta-Glo from Promega Beta-Go Assay System was added to each well. The plate was then incubated for 60 min at room temperature in the dark. Luminescence was measured using a Tecan plate reader. IC50 curves were generated using the nonlinear regression analysis (four-parameters) with GraphPad Prism 9. Results were the average of duplicates and are corrected for background.

[2] = system: NCI-H524 human small cell lung cancer cells; test: H524 assay: inhibition of cell proliferation (CellTiter Glo); conditions: 2 h treatment, washout, additional 70 h incubation
Description: NDCs of the present invention were assessed in an in vitro assay evaluating the inhibition of cell proliferation. NCI-H524 (ATCC) human small cell lung cancer cells were plated in 96-well V-bottom plates (Costar) at a concentration of 5,000 cells/well. 24 h later, the cells were treated for 2 h with a NDC. NDC starting dose was 1 uM and two-fold serial dilutions were done for a total of 11 points. After 2 h of treatment, cells were spun down, and the drug-containing media was removed, and fresh complete media was added and used to resuspend the cells, which were spun again. After removal of the media, the cells were resuspended in complete medium and incubated for an additional 70 h. Cell proliferation was assessed using the CellTiter Glo Assay according to the standard protocol (Promega). Luminescence was measured using a TECAN plate reader. Percent proliferation inhibition was calculated using the following formula: % inhibition=(Luminescence Control−Luminescence Treatment)/Luminescence Control*100. IC50 curves were generated using the nonlinear regression analysis (four-parameter) with GraphPad Prism 9.

T2 sequence (P30874 whole entry): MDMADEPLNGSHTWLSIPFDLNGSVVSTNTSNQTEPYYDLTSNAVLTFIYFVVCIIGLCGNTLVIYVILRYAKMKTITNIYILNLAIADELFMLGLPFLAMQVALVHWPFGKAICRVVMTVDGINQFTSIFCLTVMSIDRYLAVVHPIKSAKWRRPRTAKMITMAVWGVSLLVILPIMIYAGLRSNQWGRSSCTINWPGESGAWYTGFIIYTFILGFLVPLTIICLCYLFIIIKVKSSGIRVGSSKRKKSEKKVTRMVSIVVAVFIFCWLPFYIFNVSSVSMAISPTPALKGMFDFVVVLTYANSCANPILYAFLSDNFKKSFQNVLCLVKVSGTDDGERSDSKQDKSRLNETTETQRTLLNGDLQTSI
T1 sequence (P30874 whole entry): as above

SMILES | EC50 [1] | EC50 (SST2) | EC50 [2]
CC[C@H](C)[C@@H]([C@@H](CC(=O)N1CCC[C@H]1[C@H](OC)[C@@H](C)C(=O)N[C@H](C)[C@@H](O)c1ccccc1)OC)N(C)C(=O)[C@@H](NC(=O)[C@H](C(C)C)N(C)C(=O)OCc1ccc(NC(=O)[C@H](CCCNC(N)=O)NC(=O)[C@@H](NC(=O)[C@H](CCC(=O)O)NC(=O)CCOCCOCCOCCOCCC(=O)NCCNc2ncc(-c3cc(C)cc(F)c3)c(N3CCC(N)CC3)c2-c2nc3ccc(Cl)cc3[nH]2)C(C)C)cc1C(=O)O)C(C)C [Compound 3] | 0.19 nM | 6.8 nM | 680 nM
CC[C@H](C)[C@@H]([C@@H](CC(=O)N1CCC[C@H]1[C@H](OC)[C@@H](C)C(=O)N[C@H](C)[C@@H](O)c1ccccc1)OC)N(C)C(=O)[C@@H](NC(=O)[C@H](C(C)C)N(C)C(=O)OCc1ccc(NC(=O)[C@H](CCCNC(N)=O)NC(=O)[C@@H](NC(=O)CCOCCOCCOCCOCCC(=O)NCCNc2ncc(-c3cc(C)cc(F)c3)c(N3CCC(N)CC3)c2-c2nc3ccc(Cl)cc3[nH]2)C(C)C)cc1C(=O)O)C(C)C [Compound 4] | 0.11 nM | 3.8 nM | 740 nM
CC[C@H](C)[C@@H]([C@@H](CC(=O)N1CCC[C@H]1[C@H](OC)[C@@H](C)C(=O)N[C@H](C)[C@@H](O)c1ccccc1)OC)N(C)C(=O)[C@@H](NC(=O)[C@H](C(C)C)N(C)C(=O)OCc1ccc(NC(=O)[C@H](CCCNC(N)=O)NC(=O)[C@@H](NC(=O)[C@H](CCC(N)=O)NC(=O)CCOCCC(=O)NCCNc2ncc(-c3cc(C)cc(F)c3)c(N3CCC(N)CC3)c2-c2nc3ccc(Cl)cc3[nH]2)C(C)C)cc1C(=O)O)C(C)C [Compound 5] | 0.29 nM | 2.2 nM | 520 nM
CC[C@H](C)[C@@H]([C@@H](CC(=O)N1CCC[C@H]1[C@H](OC)[C@@H](C)C(=O)N[C@H](C)[C@@H](O)c1ccccc1)OC)N(C)C(=O)[C@@H](NC(=O)[C@H](C(C)C)N(C)C(=O)OCc1ccc(NC(=O)[C@H](CCCNC(N)=O)NC(=O)[C@@H](NC(=O)[C@H](CCC(=O)O)NC(=O)CCOCCC(=O)NCCNc2ncc(-c3cc(C)cc(F)c3)c(N3CCC(N)CC3)c2-c2nc3ccc(Cl)cc3[nH]2)C(C)C)c(C(F)(F)F)c1)C(C)C [Compound 6] | 0.21 nM | 3.5 nM | 7300 nM
CC[C@H](C)[C@@H]([C@@H](CC(=O)N1CCC[C@H]1[C@H](OC)[C@@H](C)C(=O)N[C@H](C)[C@@H](O)c1ccccc1)OC)N(C)C(=O)[C@@H](NC(=O)[C@H](C(C)C)N(C)C(=O)OCc1ccc(NC(=O)[C@H](CCCNC(N)=O)NC(=O)[C@@H](NC(=O)CCOCCC(=O)NCCNc2ncc(-c3cc(C)cc(F)c3)c(N3CCC(N)CC3)c2-c2nc3ccc(Cl)cc3[nH]2)C(C)C)c(C)c1)C(C)C [Compound 9] | 0.38 nM | 2.5 nM | 4.3 nM
CC[C@H](C)[C@@H]([C@@H](CC(=O)N1CCC[C@H]1[C@H](OC)[C@@H](C)C(=O)N[C@H](C)[C@@H](O)c1ccccc1)OC)N(C)C(=O)[C@@H](NC(=O)[C@H](C(C)C)N(C)C(=O)OCc1ccc(NC(=O)[C@H](CCCNC(N)=O)NC(=O)[C@@H](NC(=O)CCOCCC(=O)NCCNc2ncc(-c3cc(C)cc(F)c3)c(N3CCC(N)CC3)c2-c2nc3ccc(Cl)cc3[nH]2)C(C)C)c(OCCN)c1)C(C)C [Compound 10] | 0.21 nM | 2.7 nM | 0.76 nM
CC[C@H](C)[C@@H]([C@@H](CC(=O)N1CCC[C@H]1[C@H](OC)[C@@H](C)C(=O)N[C@H](C)[C@@H](O)c1ccccc1)OC)N(C)C(=O)[C@@H](NC(=O)[C@H](C(C)C)N(C)C(=O)OCc1ccc(NC(=O)[C@H](CCCNC(N)=O)NC(=O)[C@@H](NC(=O)CCOCCC(=O)NCCNc2ncc(-c3cc(C)cc(F)c3)c(N3CCC(N)CC3)c2-c2nc3ccc(Cl)cc3[nH]2)C(C)C)c(OC)c1)C(C)C [Compound 11] | 0.33 nM | 10 nM | 14 nM
CC[C@H](C)[C@@H]([C@@H](CC(=O)N1CCC[C@H]1[C@H](OC)[C@@H](C)C(=O)N[C@H](C)[C@@H](O)c1ccccc1)OC)N(C)C(=O)[C@@H](NC(=O)[C@H](C(C)C)N(C)C(=O)OCc1ccc(NC(=O)[C@H](CCCNC(N)=O)NC(=O)[C@@H](NC(=O)CCOCCC(=O)NCCNc2ncc(-c3cc(C)cc(F)c3)c(N3CCC(N)CC3)c2-c2nc3ccc(Cl)cc3[nH]2)C(C)C)c(OCCO)c1)C(C)C [Compound 12] | 0.24 nM | 6.9 nM | 3.9 nM
CC[C@H](C)[C@@H]([C@@H](CC(=O)N1CCC[C@H]1[C@H](OC)[C@@H](C)C(=O)N[C@H](C)[C@@H](O)c1ccccc1)OC)N(C)C(=O)[C@@H](NC(=O)[C@H](C(C)C)N(C)C(=O)OCc1ccc(NC(=O)[C@H](C)NC(=O)[C@@H](NC(=O)CCOCCC(=O)NCCNc2ncc(-c3cc(C)cc(F)c3)c(N3CCC(N)CC3)c2-c2nc3ccc(Cl)cc3[nH]2)C(C)C)c(OCC(=O)O)c1)C(C)C [Compound 13] | 0.16 nM | 3.2 nM | 11 nM
CC[C@H](C)[C@@H]([C@@H](CC(=O)N1CCC[C@H]1[C@H](OC)[C@@H](C)C(=O)N[C@H](C)[C@@H](O)c1ccccc1)OC)N(C)C(=O)[C@@H](NC(=O)[C@H](C(C)C)N(C)C(=O)OCc1ccc(NC(=O)[C@H](C)NC(=O)[C@@H](NC(=O)CCOCCOCCOCCOCCC(=O)NCCNc2ncc(-c3cc(C)cc(F)c3)c(N3CCC(N)CC3)c2-c2nc3ccc(Cl)cc3[nH]2)C(C)C)c(OCC(=O)O)c1)C(C)C [Compound 14] | 0.037 nM | 4.6 nM | 19 nM
CC[C@H](C)[C@@H]([C@@H](CC(=O)N1CCC[C@H]1[C@H](OC)[C@@H](C)C(=O)N[C@H](C)[C@@H](O)c1ccccc1)OC)N(C)C(=O)[C@@H](NC(=O)[C@H](C(C)C)N(C)C(=O)OCc1ccc(NC(=O)[C@H](CCCNC(N)=O)NC(=O)[C@@H](NC(=O)[C@H](CCC(=O)O)NC(=O)CCOCCC(=O)NCCNc2ncc(-c3cc(C)cc(F)c3)c(N3CCC(N)CC3)c2-c2nc3ccc(Cl)cc3[nH]2)C(C)C)c(C)c1)C(C)C [Compound 15] | 0.27 nM | 17 nM | 91 nM
CC[C@H](C)[C@@H]([C@@H](CC(=O)N1CCC[C@H]1[C@H](OC)[C@@H](C)C(=O)N[C@H](C)[C@@H](O)c1ccccc1)OC)N(C)C(=O)[C@@H](NC(=O)[C@H](C(C)C)N(C)C(=O)OCc1ccc(NC(=O)[C@H](CCCNC(N)=O)NC(=O)[C@@H](NC(=O)[C@H](CCC(=O)O)NC(=O)CCOCCC(=O)NCCNc2ncc(-c3cc(C)cc(F)c3)c(N3CCC(N)CC3)c2-c2nc3ccc(Cl)cc3[nH]2)C(C)C)c(OC)c1)C(C)C [Compound 16] | 0.083 nM | 7.8 nM | 160 nM
